ChEMBL document CHEMBL4507299, “Data for DCP probe PF-04554878” (2021)

What was measured:
[1] = molecular target: Serine/threonine-protein kinase N2 (Homo sapiens) (UniProt Q16513)
[2] = molecular target: Tyrosine-protein kinase ABL2 (Homo sapiens) (UniProt P42684)
[3] = molecular target: Dual specificity protein kinase CLK4 (Homo sapiens) (UniProt Q9HAZ1)
[4] = molecular target: Serine/threonine-protein kinase RIO2 (Homo sapiens) (UniProt Q9BVS4)
[5] = molecular target: Platelet-derived growth factor receptor beta (Homo sapiens) (UniProt P09619)
[6] = test system: Tyrosine-protein kinase ABL1 (Homo sapiens), P00519 [T315I]
[7] = molecular target: Serine/threonine-protein kinase 36 (Homo sapiens) (UniProt Q9NRP7)
[8] = molecular target: Serine/threonine-protein kinase pim-3 (Homo sapiens) (UniProt Q86V86)
[9] = molecular target: 1-phosphatidylinositol 3-phosphate 5-kinase (Homo sapiens) (UniProt Q9Y2I7)
[10] = molecular target: Ephrin type-A receptor 5 (Homo sapiens) (UniProt P54756)
[11] = test system: Tyrosine-protein kinase ABL1 (Homo sapiens), P00519 [M351T]
[12] = molecular target: Serine/threonine-protein kinase 16 (Homo sapiens) (UniProt O75716)
Sequence of Serine/threonine-protein kinase 16 (Homo sapiens) (O75716 whole entry): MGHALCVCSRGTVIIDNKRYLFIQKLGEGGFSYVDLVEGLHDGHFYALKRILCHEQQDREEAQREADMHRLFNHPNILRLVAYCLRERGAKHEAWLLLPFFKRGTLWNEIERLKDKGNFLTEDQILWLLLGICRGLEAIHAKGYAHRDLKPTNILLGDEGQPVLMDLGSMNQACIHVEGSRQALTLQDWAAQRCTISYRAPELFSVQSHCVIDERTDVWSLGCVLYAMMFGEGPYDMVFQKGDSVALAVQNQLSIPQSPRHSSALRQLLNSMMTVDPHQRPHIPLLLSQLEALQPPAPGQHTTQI

[13] = molecular target: Mitogen-activated protein kinase 1 (Homo sapiens) (UniProt P28482)
[14] = test system: Receptor-type tyrosine-protein kinase FLT3 (Homo sapiens), P36888 [R834Q]
[15] = molecular target: Receptor tyrosine-protein kinase erbB-2 (Homo sapiens) (UniProt P04626)
[16] = molecular target: Microtubule-associated serine/threonine-protein kinase 1 (Homo sapiens) (UniProt Q9Y2H9)
Sequence of Microtubule-associated serine/threonine-protein kinase 1 (Homo sapiens) (Q9Y2H9 whole entry, looked up): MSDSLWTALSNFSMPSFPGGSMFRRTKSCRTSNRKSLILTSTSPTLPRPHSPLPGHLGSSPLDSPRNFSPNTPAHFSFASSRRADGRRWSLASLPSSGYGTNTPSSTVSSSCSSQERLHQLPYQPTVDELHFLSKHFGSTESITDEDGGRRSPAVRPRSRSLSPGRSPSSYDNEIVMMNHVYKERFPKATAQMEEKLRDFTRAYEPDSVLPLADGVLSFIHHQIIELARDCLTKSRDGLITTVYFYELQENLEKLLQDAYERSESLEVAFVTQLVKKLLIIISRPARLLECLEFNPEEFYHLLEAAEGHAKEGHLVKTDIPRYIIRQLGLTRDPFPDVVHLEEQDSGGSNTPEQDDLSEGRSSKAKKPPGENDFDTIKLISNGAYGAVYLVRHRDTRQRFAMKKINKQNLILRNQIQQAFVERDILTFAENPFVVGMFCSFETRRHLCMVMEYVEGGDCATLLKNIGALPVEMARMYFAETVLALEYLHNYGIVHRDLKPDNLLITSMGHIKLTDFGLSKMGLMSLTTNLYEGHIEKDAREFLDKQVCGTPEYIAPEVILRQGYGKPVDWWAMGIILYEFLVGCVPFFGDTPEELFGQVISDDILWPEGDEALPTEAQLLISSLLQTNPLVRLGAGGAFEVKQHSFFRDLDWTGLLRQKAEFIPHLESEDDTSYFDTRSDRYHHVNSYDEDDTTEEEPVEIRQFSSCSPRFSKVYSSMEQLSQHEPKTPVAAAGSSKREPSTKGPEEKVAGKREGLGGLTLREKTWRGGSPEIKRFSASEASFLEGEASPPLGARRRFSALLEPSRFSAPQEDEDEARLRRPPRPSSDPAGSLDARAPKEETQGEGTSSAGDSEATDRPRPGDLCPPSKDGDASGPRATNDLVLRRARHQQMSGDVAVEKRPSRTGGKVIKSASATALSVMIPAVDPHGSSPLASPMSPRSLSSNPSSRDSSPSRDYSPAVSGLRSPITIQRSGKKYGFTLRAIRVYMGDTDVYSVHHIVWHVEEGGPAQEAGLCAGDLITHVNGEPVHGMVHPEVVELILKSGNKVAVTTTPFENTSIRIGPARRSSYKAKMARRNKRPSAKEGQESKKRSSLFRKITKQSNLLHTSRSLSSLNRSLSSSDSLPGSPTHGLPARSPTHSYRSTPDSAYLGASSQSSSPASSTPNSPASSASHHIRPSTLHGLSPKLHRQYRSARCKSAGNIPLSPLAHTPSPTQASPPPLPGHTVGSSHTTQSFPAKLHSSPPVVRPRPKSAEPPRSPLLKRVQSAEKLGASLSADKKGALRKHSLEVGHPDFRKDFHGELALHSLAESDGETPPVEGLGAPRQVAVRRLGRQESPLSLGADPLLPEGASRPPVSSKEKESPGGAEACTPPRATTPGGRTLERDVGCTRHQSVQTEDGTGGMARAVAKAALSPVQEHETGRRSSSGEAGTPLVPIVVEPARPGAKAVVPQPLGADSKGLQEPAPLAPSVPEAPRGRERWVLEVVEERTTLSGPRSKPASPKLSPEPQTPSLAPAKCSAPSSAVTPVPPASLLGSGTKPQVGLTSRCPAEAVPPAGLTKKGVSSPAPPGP

[17] = molecular target: Serine/threonine-protein kinase MRCK beta (Homo sapiens) (UniProt Q9Y5S2)
[18] = molecular target: Serine/threonine-protein kinase Sgk3 (Homo sapiens) (UniProt Q96BR1)
[19] = molecular target: Fibroblast growth factor receptor 3 (Homo sapiens) (UniProt P22607)
[20] = test system: Epidermal growth factor receptor (Homo sapiens), P00533 [UNDEFINED MUTATION]
[21] = molecular target: Mitogen-activated protein kinase kinase kinase 1 (Homo sapiens) (UniProt Q13233)
[22] = molecular target: Activated CDC42 kinase 1 (Homo sapiens) (UniProt Q07912)
[23] = molecular target: Muscarinic acetylcholine receptor M5 (Homo sapiens) (UniProt P08912); conditions: Compound concentration 10.0 uM
[24] = molecular target: Insulin receptor (Homo sapiens) (UniProt P06213)
[25] = molecular target: Mitogen-activated protein kinase 8 (Homo sapiens) (UniProt P45983)
Sequence of Mitogen-activated protein kinase 8 (Homo sapiens) (P45983 whole entry): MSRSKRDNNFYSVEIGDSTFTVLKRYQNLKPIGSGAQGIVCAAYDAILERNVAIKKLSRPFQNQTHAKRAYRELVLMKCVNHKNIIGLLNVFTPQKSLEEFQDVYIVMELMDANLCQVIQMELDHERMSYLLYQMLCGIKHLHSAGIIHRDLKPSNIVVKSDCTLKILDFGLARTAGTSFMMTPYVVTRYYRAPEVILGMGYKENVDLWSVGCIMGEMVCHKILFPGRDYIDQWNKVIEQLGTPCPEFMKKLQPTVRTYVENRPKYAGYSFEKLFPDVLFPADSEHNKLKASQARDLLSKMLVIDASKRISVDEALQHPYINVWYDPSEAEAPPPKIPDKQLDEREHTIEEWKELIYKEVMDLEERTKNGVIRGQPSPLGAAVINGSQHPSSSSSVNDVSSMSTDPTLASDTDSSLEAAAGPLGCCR

[26] = test system: Epidermal growth factor receptor (Homo sapiens), P00533 [UNDEFINED MUTATION]; remark: listed apart in the source
[27] = test system: Epidermal growth factor receptor (Homo sapiens), P00533 [L858R]
[28] = molecular target: 5-hydroxytryptamine receptor 2C (Homo sapiens) (UniProt P28335); conditions: Compound concentration 10.0 uM
[29] = test system: Epidermal growth factor receptor (Homo sapiens), P00533 [L858R,T790M]
[30] = molecular target: Beta-adrenergic receptor kinase 1 (Homo sapiens) (UniProt P25098)
[31] = molecular target: Macrophage colony-stimulating factor 1 receptor (Homo sapiens) (UniProt P07333)
[32] = molecular target: Tyrosine-protein kinase Tec (Homo sapiens) (UniProt P42680)
[33] = test system: Leucine-rich repeat serine/threonine-protein kinase 2 (Homo sapiens), Q5S007 [G2019S]
[34] = molecular target: Serine/threonine-protein kinase D3 (Homo sapiens) (UniProt O94806)
[35] = test system: Mast/stem cell growth factor receptor Kit (Homo sapiens), P10721 [V559D]
[36] = molecular target: Beta-1 adrenergic receptor (Homo sapiens) (UniProt P08588); conditions: Compound concentration 10.0 uM
[37] = molecular target: Death-associated protein kinase 1 (Homo sapiens) (UniProt P53355)
[38] = molecular target: Histamine H2 receptor (Homo sapiens) (UniProt P25021); conditions: Compound concentration 10.0 uM
[39] = molecular target: Mitogen-activated protein kinase 7 (Homo sapiens) (UniProt Q13164)
[40] = test system: Receptor-type tyrosine-protein kinase FLT3 (Homo sapiens), P36888 [D835V]
[41] = molecular target: Ribosomal protein S6 kinase alpha-5 (Homo sapiens) (UniProt O75582)
Sequence of Ribosomal protein S6 kinase alpha-5 (Homo sapiens) (O75582 whole entry, looked up): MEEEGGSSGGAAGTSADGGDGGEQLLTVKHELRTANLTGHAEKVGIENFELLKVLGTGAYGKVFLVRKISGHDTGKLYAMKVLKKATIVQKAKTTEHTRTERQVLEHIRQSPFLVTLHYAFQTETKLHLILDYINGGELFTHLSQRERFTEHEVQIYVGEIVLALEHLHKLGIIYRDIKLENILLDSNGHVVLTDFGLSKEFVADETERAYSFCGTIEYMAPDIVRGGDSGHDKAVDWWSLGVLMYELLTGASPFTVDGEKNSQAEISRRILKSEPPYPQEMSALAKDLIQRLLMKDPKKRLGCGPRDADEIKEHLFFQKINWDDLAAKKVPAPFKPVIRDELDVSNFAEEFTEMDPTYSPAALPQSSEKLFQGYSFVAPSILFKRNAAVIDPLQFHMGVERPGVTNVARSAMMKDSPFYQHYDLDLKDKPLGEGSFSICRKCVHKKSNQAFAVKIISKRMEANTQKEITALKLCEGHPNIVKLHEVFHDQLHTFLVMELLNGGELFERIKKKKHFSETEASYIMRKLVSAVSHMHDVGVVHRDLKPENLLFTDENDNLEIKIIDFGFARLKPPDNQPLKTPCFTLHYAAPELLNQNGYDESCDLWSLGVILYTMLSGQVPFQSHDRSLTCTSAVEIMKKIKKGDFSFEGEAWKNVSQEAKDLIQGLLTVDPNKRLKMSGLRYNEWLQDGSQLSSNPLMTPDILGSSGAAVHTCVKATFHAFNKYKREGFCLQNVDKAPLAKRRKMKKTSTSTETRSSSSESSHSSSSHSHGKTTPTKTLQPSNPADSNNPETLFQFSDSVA

[42] = molecular target: Ribosomal protein S6 kinase alpha-5 (Homo sapiens) (UniProt O75582); remark: listed apart in the source
[43] = molecular target: 5-hydroxytryptamine receptor 6 (Homo sapiens) (UniProt P50406); conditions: Compound concentration 10.0 uM
Sequence of 5-hydroxytryptamine receptor 6 (Homo sapiens) (P50406 whole entry): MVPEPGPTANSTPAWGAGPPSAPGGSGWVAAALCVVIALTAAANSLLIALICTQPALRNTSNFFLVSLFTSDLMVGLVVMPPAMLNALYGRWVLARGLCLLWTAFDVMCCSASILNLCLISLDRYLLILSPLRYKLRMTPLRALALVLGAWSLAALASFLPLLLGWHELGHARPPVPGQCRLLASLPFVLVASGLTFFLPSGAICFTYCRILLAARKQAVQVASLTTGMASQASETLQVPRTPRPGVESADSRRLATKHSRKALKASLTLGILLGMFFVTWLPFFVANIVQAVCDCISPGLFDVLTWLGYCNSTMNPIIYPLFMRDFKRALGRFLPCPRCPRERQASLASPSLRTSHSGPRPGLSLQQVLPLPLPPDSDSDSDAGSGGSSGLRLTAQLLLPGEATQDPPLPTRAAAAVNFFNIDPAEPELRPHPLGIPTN

[44] = molecular target: Interleukin-1 receptor-associated kinase 4 (Homo sapiens) (UniProt Q9NWZ3)
Sequence of Interleukin-1 receptor-associated kinase 4 (Homo sapiens) (Q9NWZ3 whole entry, canonical isoform): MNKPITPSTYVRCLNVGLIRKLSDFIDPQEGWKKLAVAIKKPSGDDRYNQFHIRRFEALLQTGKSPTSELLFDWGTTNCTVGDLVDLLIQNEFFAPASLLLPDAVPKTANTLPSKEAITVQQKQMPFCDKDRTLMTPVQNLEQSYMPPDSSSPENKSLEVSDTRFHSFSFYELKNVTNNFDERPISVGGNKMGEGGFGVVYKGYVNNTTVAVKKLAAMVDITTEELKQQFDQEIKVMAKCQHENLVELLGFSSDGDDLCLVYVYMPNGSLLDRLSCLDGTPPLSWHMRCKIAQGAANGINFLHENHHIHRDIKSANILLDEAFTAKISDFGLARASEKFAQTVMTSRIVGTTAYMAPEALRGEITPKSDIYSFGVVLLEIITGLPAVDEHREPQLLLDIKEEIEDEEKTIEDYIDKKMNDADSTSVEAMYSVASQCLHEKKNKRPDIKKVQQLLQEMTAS

[45] = molecular target: Phosphatidylinositol 4,5-bisphosphate 3-kinase catalytic subunit beta isoform (Homo sapiens) (UniProt P42338)
[46] = Compound concentration 100.0 nM
[47] = Compound concentration 1000.0 nM

Sequence of Serine/threonine-protein kinase N2 (Homo sapiens) (Q16513 whole entry, looked up): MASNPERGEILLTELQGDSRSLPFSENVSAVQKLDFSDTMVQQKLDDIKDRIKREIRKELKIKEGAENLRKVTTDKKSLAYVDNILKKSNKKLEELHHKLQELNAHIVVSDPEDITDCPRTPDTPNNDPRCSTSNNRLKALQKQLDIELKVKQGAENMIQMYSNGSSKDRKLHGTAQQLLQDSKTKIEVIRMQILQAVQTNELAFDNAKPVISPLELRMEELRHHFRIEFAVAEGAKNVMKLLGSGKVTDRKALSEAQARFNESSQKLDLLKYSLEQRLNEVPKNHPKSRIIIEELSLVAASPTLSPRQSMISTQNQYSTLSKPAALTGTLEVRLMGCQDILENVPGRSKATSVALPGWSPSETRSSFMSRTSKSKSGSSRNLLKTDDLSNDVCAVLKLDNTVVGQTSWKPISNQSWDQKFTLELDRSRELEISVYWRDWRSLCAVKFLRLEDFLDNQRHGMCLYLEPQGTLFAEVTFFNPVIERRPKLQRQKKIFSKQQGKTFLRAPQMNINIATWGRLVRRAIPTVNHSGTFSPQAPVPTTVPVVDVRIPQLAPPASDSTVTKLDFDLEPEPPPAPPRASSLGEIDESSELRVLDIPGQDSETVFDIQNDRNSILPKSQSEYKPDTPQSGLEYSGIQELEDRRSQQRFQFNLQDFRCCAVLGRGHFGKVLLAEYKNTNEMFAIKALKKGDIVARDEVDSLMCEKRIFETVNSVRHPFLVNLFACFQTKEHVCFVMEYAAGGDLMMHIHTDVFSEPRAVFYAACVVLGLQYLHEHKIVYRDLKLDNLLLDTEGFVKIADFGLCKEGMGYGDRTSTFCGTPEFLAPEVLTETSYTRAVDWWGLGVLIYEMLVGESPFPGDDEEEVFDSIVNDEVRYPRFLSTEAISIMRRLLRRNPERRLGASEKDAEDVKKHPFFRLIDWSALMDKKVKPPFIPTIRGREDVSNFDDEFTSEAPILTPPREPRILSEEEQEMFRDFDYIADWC

Compound `CNC(=O)c1ccc(Nc2ncc(C(F)(F)F)c(NCc3nccnc3N(C)S(C)(=O)=O)n2)cc1` [DEFACTINIB] has a residual activity [1, 46] of 37%, a residual activity [2, 46] of 93% and a residual activity [3, 46] of 25%. The residual activity [4, 46] was 85%, the residual activity [5, 46] was 83% and the residual activity [6, 46] was 45%. For the same compound, the residual activity [7, 46] was 89%, the residual activity [8, 46] was 82% and the residual activity [9, 46] was 100%. It also gave a residual activity [10, 46] of 64%, a residual activity [11, 46] of 100% and a residual activity [12, 46] of 7.7%. For the same compound, the residual activity [13, 46] was 76%, the residual activity [14, 46] was 64% and the residual activity [15, 46] was 100%. For the same compound, the residual activity [16, 46] was 100%, the residual activity [17, 46] was 90% and the residual activity [18, 46] was 85%. For the same compound, the residual activity [19, 46] was 78%, the residual activity [20, 46] was 91% and the residual activity [21, 46] was 100%. The residual activity [22, 46] was 100%, the inhibition [23] was 5.41% and the residual activity [24, 46] was 91%. For the same compound, the residual activity [25, 46] was 100%, the residual activity [26, 46] was 97% and the residual activity [27, 46] was 100%. It also gave an inhibition [28] of 16.9%, a residual activity [29, 46] of 91% and a residual activity [30, 46] of 89%. For the same compound, the residual activity [31, 46] was 100%, the residual activity [32, 46] was 100% and the residual activity [33, 46] was 65%. The residual activity [34, 46] was 100%, the residual activity [35, 46] was 92% and the inhibition [36] was -0.83%. For the same compound, the residual activity [37, 46] was 82%, the inhibition [38] was 30.2% and the residual activity [39, 46] was 87%. For the same compound, the residual activity [40, 46] was 0.2%, the residual activity [41, 46] was 81% and the residual activity [42, 46] was 80%. The inhibition [43] was -8.99%, the residual activity [44, 46] was 92% and the residual activity [45, 46] was 45%.
`CN(c1ccnc(CNc2nc(Nc3ccc4c(c3)CC(=O)N4)ncc2C(F)(F)F)n1)S(C)(=O)=O` [PF-00911705] was tested, and the residual activity [1, 47] was 22%, the residual activity [2, 47] was 75% and the residual activity [3, 47] was 1.4%. The residual activity [4, 47] was 81%, the residual activity [5, 47] was 69% and the residual activity [6, 47] was 11%. For the same compound, the residual activity [7, 47] was 87%, the residual activity [8, 47] was 77% and the residual activity [9, 47] was 100%. It also gave a residual activity [10, 47] of 82%, a residual activity [11, 47] of 62% and a residual activity [12, 47] of 1.5%. For the same compound, the residual activity [13, 47] was 70%, the residual activity [14, 47] was 30% and the residual activity [15, 47] was 100%. For the same compound, the residual activity [16, 47] was 69%, the residual activity [17, 47] was 100% and the residual activity [18, 47] was 87%. For the same compound, the residual activity [19, 47] was 71%, the residual activity [20, 47] was 44% and the residual activity [21, 47] was 49%. It also gave a residual activity [22, 47] of 86%, an inhibition [23] of -6.47% and a residual activity [24, 47] of 100%. The residual activity [25, 47] was 65%, the residual activity [26, 47] was 75% and the residual activity [27, 47] was 73%. For the same compound, the inhibition [28] was 8.11%, the residual activity [29, 47] was 56% and the residual activity [30, 47] was 31%. The residual activity [31, 47] was 100%, the residual activity [32, 47] was 100% and the residual activity [33, 47] was 7.3%. The residual activity [34, 47] was 100%, the residual activity [35, 47] was 75% and the inhibition [36] was 16.4%. It also gave a residual activity [37, 47] of 15%, an inhibition [38] of 1.75% and a residual activity [39, 47] of 78%. For the same compound, the residual activity [40, 47] was 1.5%, the residual activity [41, 47] was 96% and the residual activity [42, 47] was 78%. The inhibition [43] was 11.1%, the residual activity [44, 47] was 50% and the residual activity [45, 47] was 100%.
